A value given as a limit tells only on which side of the number the result lay.

The target of the assay is T1, PKCθ (Homo sapiens, UniProt Q04759).
T1 construct: purchased Invitrogen
The assay can be described thus: PKCθ IMAP Assay. Format: biochemical. The conditions noted are these: IMAP fluorescence polarization screening assay, 35 μM ATP. Here is the method: The following is an example of an assay that can be used to determine the PKCθ inhibitory activity of a test compound. Reagents are prepared as follows:
Assay Buffer: 50 mM HEPES (pH 7.6), 10 mM MgCl, 0.1 mM EDTA, 5 mM MBP, 0.01% Triton, 1 mM DTT, 0.05 mg/ml phosphatidyl serine, 0.05 mg/ml diacylglycerol.
The final concentration of PKCθ (Invitrogen) is 0.5 nM. The final concentration of substrate (FAM-AKRRRLSSLRA) (Molecular Devices) is 100 nM. The final concentration of ATP in the reaction is 35 μM. The final concentration of DMSO in the reaction is 2.5%.
Enzyme is kept in 5 μl aliquots and stored at −80° C. prior to use. Test compound is allowed to pre-incubate with enzyme for 45 minutes before the reactions is initiated.
The reaction mixture consists of: 5 μl of test compound in 10% DMSO, 5 μl of 400 nM substrate (FAM-AKRRRLSSLRA), 5 μl of […] PKCθ, and 5 μl of 140 μM ATP (ATP is added to the reaction mixture last to initiate the reaction) per well.
The reaction is allowed to proceed for 60 minutes and is terminated by adding 30 μl per well of 90% Progressive A buffer/10% Progressive B buffer and a 1:400 dilution of binding beeds (Molecular Devices).
The reaction is given a binding incubation time of at least 30 minutes prior to reading the fluorescence polarization signal on an Analyst reader (the following detector settings are used: fluorescein excitation-485 nm, fluorescein emission-530 nm, fluorescein dichroic-505 nm).
For orientation: Fluorescence polarisation rises when a labelled molecule tumbles more slowly, as on binding a larger partner.

T1 sequence (Q04759 whole entry): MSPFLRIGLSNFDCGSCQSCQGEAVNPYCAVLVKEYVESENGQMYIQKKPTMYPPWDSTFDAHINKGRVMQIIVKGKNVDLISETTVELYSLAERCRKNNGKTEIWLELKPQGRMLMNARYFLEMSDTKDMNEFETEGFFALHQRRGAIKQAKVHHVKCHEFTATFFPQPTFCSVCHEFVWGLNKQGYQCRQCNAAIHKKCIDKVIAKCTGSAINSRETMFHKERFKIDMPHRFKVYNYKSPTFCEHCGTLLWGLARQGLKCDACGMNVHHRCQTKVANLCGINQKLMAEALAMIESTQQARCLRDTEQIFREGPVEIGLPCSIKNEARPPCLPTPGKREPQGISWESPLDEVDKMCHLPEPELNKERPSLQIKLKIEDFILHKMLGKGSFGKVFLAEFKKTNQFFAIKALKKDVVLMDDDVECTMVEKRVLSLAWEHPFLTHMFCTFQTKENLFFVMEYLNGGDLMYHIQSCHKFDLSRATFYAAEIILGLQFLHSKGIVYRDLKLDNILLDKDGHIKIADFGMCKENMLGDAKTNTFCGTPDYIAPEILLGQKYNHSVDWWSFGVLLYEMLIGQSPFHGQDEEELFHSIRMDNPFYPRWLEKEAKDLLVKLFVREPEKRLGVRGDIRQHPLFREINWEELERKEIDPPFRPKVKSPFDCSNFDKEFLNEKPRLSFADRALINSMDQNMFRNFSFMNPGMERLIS

Consider `O=c1[nH]c2ncc(-c3cccc4ncccc34)nc2[nH]1` [Compound 20, 5-(quinolin-5-yl)-1H-imidazo[4,5-b]pyrazin-2(3H)-one], for which the IC50 was > 30 µM.
Next, `COc1ccc(C(C)C)cc1-c1cnc2[nH]c(=O)n(CC(C)C)c2n1` [Compound 21, 1-isobutyl-6-(5-isopropyl-2-methoxyphenyl)-1H-imidazo[4,5-b]pyrazin-2(3H)-one]: > 30 µM; `COc1ccc(C(C)C)cc1-c1cnc2[nH]c(=O)n(CCO)c2n1` [Compound 22, 1-(2-hydroxyethyl)-6-(5-isopropyl-2-methoxyphenyl)-1H-imidazo[4,5-b]pyrazin-2(3H)-one]: > 30 µM; `COc1ccc(C(C)C)cc1-c1cnc2[nH]c(=O)n(C3CCOCC3)c2n1` [Compound 23, 6-(5-isopropyl-2-methoxyphenyl)-1-(tetrahydro-2H-pyran-4-yl)-1H-imidazo[4,5-b]pyrazin-2(3H)-one]: > 30 µM.
Take `COc1ccc(C(C)C)cc1-c1cnc2[nH]c(=O)n([C@H]3CCOC3)c2n1` [Compound 29, (S)-6-(5-isopropyl-2-methoxyphenyl)-1-(tetrahydrofuran-3-yl)-1H-imidazo[4,5-b]pyrazin-2(3H)-one]: the IC50 was > 30 µM.
As for `COc1ccc(C(C)C)cc1-c1cnc2[nH]c(=O)n(C3CCCC3)c2n1` [Compound 31, 1-cyclopentyl-6-(5-isopropyl-2-methoxyphenyl)-1H-imidazo[4,5-b]pyrazin-2(3H)-one], the IC50 was > 30 µM.
In the case of `COc1ccc(C(C)C)cc1-c1cnc2[nH]c(=O)n([C@@H]3CCOC3)c2n1` [Compound 32, (R)-6-(5-isopropyl-2-methoxyphenyl)-1-(tetrahydrofuran-3-yl)-1H-imidazo[4,5-b]pyrazin-2(3H)-one] it was 10.1 to 20 µM; in that of `COc1ccc(C(C)C)cc1-c1cnc2[nH]c(=O)n(CC3CC3)c2n1` [Compound 33, 1-(cyclopropylmethyl)-6-(5-isopropyl-2-methoxyphenyl)-1H-imidazo[4,5-b]pyrazin-2(3H)-one], > 30 µM.
Next, `COc1ccc(C(C)C)cc1-c1cnc2[nH]c(=O)n(CC3CCCC3)c2n1` [Compound 34, 1-(cyclopentylmethyl)-6-(5-isopropyl-2-methoxyphenyl)-1H-imidazo[4,5-b]pyrazin-2(3H)-one]: > 30 µM; `COc1ccc(C(C)C)cc1-c1cnc2[nH]c(=O)n(CC3CCCCC3)c2n1` [Compound 35, 1-(cyclohexylmethyl)-6-(5-isopropyl-2-methoxyphenyl)-1H-imidazo[4,5-b]pyrazin-2(3H)-one]: > 30 µM; `COc1ccc(C(C)C)cc1-c1cnc2[nH]c(=O)n(CC(C)(C)C)c2n1` [Compound 36, 6-(5-isopropyl-2-methoxyphenyl)-1-neopentyl-1H-imidazo[4,5-b]pyrazin-2(3H)-one]: > 30 µM.
For `CC(C)c1cccc(-c2cnc3[nH]c(=O)n(C(C)C)c3n2)c1` [Compound 37, 1-isopropyl-6-(3-isopropylphenyl)-1H-imidazo[4,5-b]pyrazin-2(3H)-one], the IC50 is > 30 µM.
In the case of `COc1ccccc1-c1cnc2[nH]c(=O)n(C(C)C)c2n1` [Compound 38, 1-isopropyl-6-(2-methoxyphenyl)-1H-imidazo[4,5-b]pyrazin-2(3H)-one] it was > 30 µM.
In the case of `COc1ccc(C(C)C)cc1-c1ccc2[nH]c(=O)n([C@H](CO)C(C)C)c2n1` [Compound 39, (S)-3-(1-hydroxy-3-methylbutan-2-yl)-5-(5-isopropyl-2-methoxyphenyl)-1H-imidazo[4,5-b]pyridin-2(3H)-one] it was > 30 µM; in that of `CC(c1ccccc1)n1c(=O)[nH]c2ncc(-c3cccc4ncccc34)nc21` (stereo not drawn) [Compound 42, 1-(1-phenylethyl)-6-(quinolin-5-yl)-1H-imidazo[4,5-b]pyrazin-2(3H)-one], 0.1 to 5 µM; in that of `O=c1[nH]c2ncc(-c3cccc4ncccc34)nc2n1C(c1ccccc1)c1ccccc1` [Compound 43, 1-benzhydryl-6-(quinolin-5-yl)-1H-imidazo[4,5-b]pyrazin-2(3H)-one], > 30 µM.
Next, `CC[C@@H](c1ccccc1)n1c(=O)[nH]c2ncc(-c3cccc4ncccc34)nc21` [Compound 44, (S)-1-(1-phenylpropyl)-6-(quinolin-5-yl)-1H-imidazo[4,5-b]pyrazin-2(3H)-one]: > 30 µM; `COc1ccc(C(C)C)cc1-c1cnc2[nH]c(=O)n(C3CCCOC3)c2n1` (stereo not drawn) [Compound 46, 6-(5-isopropyl-2-methoxyphenyl)-1-(tetrahydro-2H-pyran-3-yl)-1H-imidazo[4,5-b]pyrazin-2(3H)-one]: 10.1 to 20 µM; `C[C@H](c1ccccc1)n1c(=O)n(C)c2ncc(-c3cccc4ncccc34)nc21` [Compound 48, (R)-1-methyl-3-(1-phenylethyl)-5-(quinolin-5-yl)-1H-imidazo[4,5-b]pyrazin-2(3H)-one]: > 30 µM.
For the molecule `C[C@@H](c1ccccc1)n1c(=O)n(C)c2ncc(-c3cccc4ncccc34)nc21` [Compound 49, (S)-1-methyl-3-(1-phenylethyl)-5-(quinolin-5-yl)-1H-imidazo[4,5-b]pyrazin-2(3H)-one], the IC50 was > 30 µM.
As to `C[C@H](c1ccccc1)n1c(=O)[nH]c2ncc(-c3cccc4ncccc34)cc21` [Compound 62, (R)-1-(1-phenylethyl)-6-(quinolin-5-yl)-1H-imidazo[4,5-b]pyridin-2(3H)-one], the IC50 was > 30 µM.
Take `CC(c1ccccc1)n1c(=O)[nH]c2ncc(-c3cccc4ncccc34)cc21` (stereo not drawn) [Compound 63, 1-(1-phenylethyl)-6-(quinolin-5-yl)-1H-imidazo[4,5-b]pyridin-2(3H)-one]: the IC50 was > 30 µM.
In the case of `CC(c1ccc(S(C)(=O)=O)cc1)n1c(=O)[nH]c2ncc(-c3cccc4ncccc34)nc21` (stereo not drawn) [Compound 66, 1-(1-(4-(methylsulfonyl)phenyl)ethyl)-6-(quinolin-5-yl)-1H-imidazo[4,5-b]pyrazin-2(3H)-one] it was > 30 µM; in that of `CC(c1ccncc1)n1c(=O)[nH]c2ncc(-c3cccc4ncccc34)nc21` (stereo not drawn) [Compound 67, 1-(1-(pyridin-4-yl)ethyl)-6-(quinolin-5-yl)-1H-imidazo[4,5-b]pyrazin-2(3H)-one], 20.1 to 30 µM.
Next, `O=c1[nH]c2ncc(-c3cccc4ncccc34)nc2n1CC1CCNCC1` [Compound 74, 1-(piperidin-4-ylmethyl)-6-(quinolin-5-yl)-1H-imidazo[4,5-b]pyrazin-2(3H)-one]: > 30 µM.
On to `CC(c1ccccn1)n1c(=O)[nH]c2ncc(-c3cccc4ncccc34)nc21` (stereo not drawn) [Compound 75, 1-(1-(pyridin-2-yl)ethyl)-6-(quinolin-5-yl)-1H-imidazo[4,5-b]pyrazin-2(3H)-one], for which the IC50 fell in the range of 10.1 to 20 µM.
In the case of `CC(c1cccnc1)n1c(=O)[nH]c2ncc(-c3cccc4ncccc34)nc21` (stereo not drawn) [Compound 76, 1-(1-(pyridin-3-yl)ethyl)-6-(quinolin-5-yl)-1H-imidazo[4,5-b]pyrazin-2(3H)-one] it was 5.1 to 10 µM; in that of `O=c1[nH]c2ncc(-c3cccc4ncccc34)nc2n1C1CCC(CO)CC1` (stereo not drawn) [Compound 77, 1-((1s,4s)-4-(hydroxymethyl)cyclohexyl)-6-(quinolin-5-yl)-1H-imidazo[4,5-b]pyrazin-2(3H)-one], 20.1 to 30 µM; in that of `CC(c1ccccc1)n1c(=O)[nH]c2ncc(-c3ccc(NS(C)(=O)=O)cc3)nc21` (stereo not drawn) [Compound 78, N-(4-(2-oxo-3-(1-phenylethyl)-2,3-dihydro-1H-imidazo[4,5-b]pyrazin-5-yl)phenyl)methanesulfonamide], > 30 µM.
Turning to `CC(c1ccccc1)n1c(=O)[nH]c2ncc(-c3ccc(C(F)(F)F)cc3)nc21` (stereo not drawn) [Compound 83, 1-(1-phenylethyl)-6-(4-(trifluoromethyl)phenyl)-1H-imidazo[4,5-b]pyrazin-2(3H)-one], the IC50 was > 30 µM.

In general, IC50 refers to the concentration that inhibits the measured activity by half. Low readings indicate inhibition by little substance, high ones a need for much substance.

For the origin of these results see patent publication US7981893B2, “Heteroaryl compounds, compositions thereof, and methods of treatment therewith” (Signal Pharmaceuticals, LLC, priority 2006, dated 2011).
